Tested on: dyslipidemic patients with renal impairment
Assay: Example 3 phase III 52-week trial: lipid levels
Type: in vivo, human
Details: for HDL-C % Change from baseline at Week 52 (LOCF) / HDL-C Week 52 (LOCF) / LDL-C % Change from baseline at Week 52 (LOCF) / LDL-C Week 52 (LOCF) / RemL-C % Change from baseline at Week 52 (LOCF) / RemL-C Week 52 (LOCF) / TG % Change from baseline at Week 52 (LOCF) / TG Week 52 (LOCF) / TG/HDL-C % Change from baseline at Week 52 (LOCF) / TG/HDL-C Week 52 (LOCF) / apoA1 % Change from baseline at Week 52 (LOCF) / apoA1 Week 52 (LOCF) / non-HDL-C % Change from baseline at Week 52 (LOCF) / non-HDL-C Week 52 (LOCF): 0.2 (0.4) mg/day
Experimental: This was a multicenter, single-arm, open-label, phase III trial. The inclusion criteria were as follows: (1) patients with dyslipidemia aged >20 years at the time of informed consent; (2) men and postmenopausal women; (3) fasting serum TG≥1.70 mmol/L (150 mg/dL) at two consecutive measurements during screening; and (4) patients who followed dietary and physical exercise guidance for >12 weeks before enrollment.
The major exclusion criteria were as follows: (1) patients with fasting serum TG≥5.65 mmol/L (500 mg/dL) during screening; (2) patients with poorly controlled diabetes mellitus (hemoglobin A1c [HbA1c]≥10.5%); (3) patients with concurrent poorly controlled thyroid disease; (4) men with serum creatinine ≥2.5 mg/dL and women with serum creatinine ≥2.0 mg/dL during screening who were already on statin therapy; (5) patients with eGFR<45 mL/min/1.73 m^2 during screening who were already on statin therapy; (6) patients with CK>5ULN (270 IU/L for men, 150 IU/L for women) during screening who were already on statin therapy; (7) patients with serious liver disease (cirrhosis Child-Pugh Class B or higher); (8) patients with gallstones or serious biliary tract disease; (9) patients who had suffered an acute myocardial infarction or stroke within three months before informed consent; and (10) patients with New York Heart Association class III or IV heart failure.
During the screening period (8 weeks prior to treatment initiation), tests were performed twice to determine patient eligibility. Thereafter, eligible patients orally received pemafibrate 0.2 mg/day (twice daily) for 52 weeks. From week 12 of the treatment period onwards, the investigators were instructed that the dose could be increased from 0.2 mg/day to 0.4 mg/day (twice daily) if there was an inadequate response to the initial dose based on fasting serum TG levels ≥1.70 mmol/L (150 mg/dL). Fasting blood and urine samples were collected at each visit. Blood and urine sample in patients with hemodialysis were collected just before dialysis. LDL-C levels were measured using the direct method. Lipoprotein fractions were measured by HPLC at baseline and weeks 12 and 40.
The primary efficacy endpoint was the percent change in fasting serum TG from baseline to the last evaluation point. The primary safety endpoints were the incidence of an AE or ADR occurring after drug administration during the study. Secondary efficacy endpoints included percent changes in lipid variables and changes in inflammation variables at week 52 [using the last-observation-carried-forward (LOCF)]. Secondary safety endpoints included changes in the levels of aspartate aminotransferase (AST), ALT, -GT, ALP, serum creatinine, eGFR, and CK at week 52. Each baseline value was defined as (1) the mean of the corresponding values in the first and second tests at the screening examination and at week 0 of the treatment period for fasting serum TG, HDL-C, total cholesterol (TC), LDL-C, and non-HDL-C; and (2) the value at week 0 of the treatment period for the other secondary variables.
The target sample size was set to 170 patients based on the number required to evaluate safety according to the International Conference on Harmonisation (ICH)-E1 guideline “Extent of population exposure to assess clinical safety for drugs intended for long-term treatment of non-life-threatening conditions”. For the primary efficacy endpoint, one-sample t-tests were performed.
The numbers of patients with AEs and ADRs and the incidences of AEs and ADRs were calculated in the analysis of primary safety endpoints. For the secondary efficacy endpoints, one-sample t-tests or Wilcoxon signed-rank tests [for high-sensitivity C-reactive protein (hsCRP) and IL-1] were performed. The secondary safety endpoints were analyzed with Wilcoxon signed-rank tests. A two-sided significance level of 0.05 was used. SAS v. 9.3 (SAS Institute Inc., Cary, N.C., USA) was used for these analyses. […]

## CC[C@@H](Oc1cccc(CN(CCCOc2ccc(OC)cc2)c2nc3ccccc3o2)c1)C(=O)O [Pemafibrate, (2R)-2-[3-({1,3-benzoxazol-2-yl[3-(4-methoxyphenoxy)propyl]amino}methyl)phenoxy]butanoic acid]
All Participants
  HDL-C % Change from baseline at Week 52 (LOCF): 13.1%
  HDL-C Week 52 (LOCF): 1.33 mmol/L
  LDL-C % Change from baseline at Week 52 (LOCF): 2.2%
  LDL-C Week 52 (LOCF): 3.02 mmol/L
  RemL-C % Change from baseline at Week 52 (LOCF): −57.2%
  RemL-C Week 52 (LOCF): 0.18 mmol/L
  TG % Change from baseline at Week 52 (LOCF): −45.8%
  TG Week 52 (LOCF): 1.48 mmol/L
  TG/HDL-C % Change from baseline at Week 52 (LOCF): −49.7%
  TG/HDL-C Week 52 (LOCF): 2.27 (mmol/L)/(mmol/L)
  apoA1 % Change from baseline at Week 52 (LOCF): 5.0%
  apoA1 Week 52 (LOCF): 137.6 mg/dL
  non-HDL-C % Change from baseline at Week 52 (LOCF): −8.7%
  non-HDL-C Week 52 (LOCF): 3.63 mmol/L
eGFR G1 (≥90)
  HDL-C % Change from baseline at Week 52 (LOCF): 3.6%
  HDL-C Week 52 (LOCF): 1.29 mmol/L
  LDL-C % Change from baseline at Week 52 (LOCF): 2.7%
  LDL-C Week 52 (LOCF): 3.12 mmol/L
  RemL-C % Change from baseline at Week 52 (LOCF): −59.9%
  RemL-C Week 52 (LOCF): 0.21 mmol/L
  TG % Change from baseline at Week 52 (LOCF): −41.4%
  TG Week 52 (LOCF): 1.71 mmol/L
  TG/HDL-C % Change from baseline at Week 52 (LOCF): −40.5%
  TG/HDL-C Week 52 (LOCF): 1.58 (mmol/L)/(mmol/L)
  apoA1 % Change from baseline at Week 52 (LOCF): 0.0%
  apoA1 Week 52 (LOCF): 133.8 mg/dL
  non-HDL-C % Change from baseline at Week 52 (LOCF): −8.3%
  non-HDL-C Week 52 (LOCF): 3.77 mmol/L
eGFR G2 (≥60 and <90)
  HDL-C % Change from baseline at Week 52 (LOCF): 11.9%
  HDL-C Week 52 (LOCF): 1.34 mmol/L
  LDL-C % Change from baseline at Week 52 (LOCF): 2.1%
  LDL-C Week 52 (LOCF): 3.03 mmol/L
  RemL-C % Change from baseline at Week 52 (LOCF): −56.0%
  RemL-C Week 52 (LOCF): 0.18 mmol/L
  TG % Change from baseline at Week 52 (LOCF): −45.8%
  TG Week 52 (LOCF): 1.47 mmol/L
  TG/HDL-C % Change from baseline at Week 52 (LOCF): −48.9%
  TG/HDL-C Week 52 (LOCF): 1.24 (mmol/L)/(mmol/L)
  apoA1 % Change from baseline at Week 52 (LOCF): 4.1%
  apoA1 Week 52 (LOCF): 137.2 mg/dL
  non-HDL-C % Change from baseline at Week 52 (LOCF): −8.4%
  non-HDL-C Week 52 (LOCF): 3.64 mmol/L
eGFR G3a-G3b (≥30 and <60)
  HDL-C % Change from baseline at Week 52 (LOCF): 17.0%
  HDL-C Week 52 (LOCF): 1.38 mmol/L
  LDL-C % Change from baseline at Week 52 (LOCF): 5.1%
  LDL-C Week 52 (LOCF): 2.97 mmol/L
  RemL-C % Change from baseline at Week 52 (LOCF): −59.3%
  RemL-C Week 52 (LOCF): 0.17 mmol/L
  TG % Change from baseline at Week 52 (LOCF): −51.1%
  TG Week 52 (LOCF): 1.36 mmol/L
  TG/HDL-C % Change from baseline at Week 52 (LOCF): −57.0%
  TG/HDL-C Week 52 (LOCF): 1.09 (mmol/L)/(mmol/L)
  apoA1 % Change from baseline at Week 52 (LOCF): 8.0%
  apoA1 Week 52 (LOCF): 144.0 mg/dL
  non-HDL-C % Change from baseline at Week 52 (LOCF): −7.7%
  non-HDL-C Week 52 (LOCF): 3.56 mmol/L
eGFR G4-G5 (<30)
  HDL-C % Change from baseline at Week 52 (LOCF): 34.1%
  HDL-C Week 52 (LOCF): 1.18 mmol/L
  LDL-C % Change from baseline at Week 52 (LOCF): −8.8%
  LDL-C Week 52 (LOCF): 2.82 mmol/L
  RemL-C % Change from baseline at Week 52 (LOCF): −57.1%
  RemL-C Week 52 (LOCF): 0.24 mmol/L
  TG % Change from baseline at Week 52 (LOCF): −37.7%
  TG Week 52 (LOCF): 1.64 mmol/L
  TG/HDL-C % Change from baseline at Week 52 (LOCF): −51.0%
  TG/HDL-C Week 52 (LOCF): 1.68 (mmol/L)/(mmol/L)
  apoA1 % Change from baseline at Week 52 (LOCF): 16.7%
  apoA1 Week 52 (LOCF): 122.4 mg/dL
  non-HDL-C % Change from baseline at Week 52 (LOCF): −17.3%
  non-HDL-C Week 52 (LOCF): 3.48 mmol/L
Lowest eGFR group (eGFR<30 mL/min/1.73 m^2: G4-G5)
  LDL-C change (observation): reduction

From patent publication US11446282B2, “Methods of treating mixed dyslipidemia and hypertriglycertdemia” (Kowa Company, Ltd., priority 2017, dated 2022)
